Experiments:
[1] = system: CAM blood vessel formation induced by VEGF/bFGF; assay: Chicken chorioallantoic membrane (CAM) assay; type: in vivo; settings: 200 ng VEGF-165/bFGF, 48 hr
Method: Chicken chorioallantoic membrane (CAM) assay: The fertile Leghorn chicken eggs were incubated in a humidified environment at 37.5° C. for 10 days. […] Anti-angiogenic compounds were then added 8 hr after the VEGF/bFGF at saturation to the same microbial testing disk, and the embryos were incubated for an additional 40 h. CAMs were then removed, quickly fixed with 4% paraformaldehyde in PBS, placed onto Petri dishes, and digitized images taken at 7.5× using a Nikon dissecting microscope and Scion Imaging system. A 1×1-cm grid was then added to the digital CAM images and the average number of vessels within 5-7 grids counted as a measure of vascularity.
CAM assay was used for in vivo anti-angiogenic studies. The fertile leghorn chicken eggs were allowed to incubate in a humidified environment at 37.5° C. for 10 days. […] Anti-angiogenic compounds were then added 8 hours after the VEGF/bFGF at saturation to the same microbial testing disk and embryos allowed to incubate for an additional 40 hours. After 48 hr, CAMs were removed, quickly fixed with 4% paraformaldehyde in PBS, placed onto Petri dishes, and digitized images taken at 7.5× using a Nikon dissecting microscope and Scion Imaging system. A 1×1-cm grid was then added to the digital CAM images and the average number of vessels within 5-7 grids counted as a measure of vascularity.
FIG. 14 is a table comparing the effect of Compound 4 on blood vessel formation. […] Data represent mean±SD of 8-16 samples from 2-3 separate experiments.

BRCEC = assay: MTT cell proliferation assay, BRCEC; type: cell-based, bovine; settings: Bos taurus, 72 h, treated 3 days, read-out: IC50, inhibition of proliferation of BRCEC
Excerpt: (§1) Cell culture: All cell culture media and supplements were purchased from Cellgro unless otherwise indicated. Human Umbilical Vein Endothelial Cells (HUVEC) were obtained from American Type Culture Collection and grown in the EBM-MV2 medium (Clonetics). Bovine Retinal Endothelial Cells (BREC) and pericytes were isolated according to a modified method as described previously (Wong, et al. Investig. Opthalmol. Vis. Sci. 1987, 28: 1767-1775). Twelve bovine eyes were obtained from a local slaughterhouse (Country Home Meats). The retinas were removed and washed four times in DMEM. Subsequently retinas were homogenized and centrifuged at 400×g for 10 min. The resultant pellet was resuspended in an isolation medium (DMEM with 100 IU/ml penicillin, 100 μg/ml streptomycin and 250 ng/ml amphotericin). Microvessels were trapped on an 85 μm nylon mesh (Locker Wire Weavers LTD) and transferred to a petri dish (Falcon) containing 10 ml of an enzyme cocktail which consisted of 600 μg/ml DNase I (Sigma), 165 μg/ml collagenase (Sigma) and 700 μg/ml Pronase E (EMD) and were incubated at 37° C. for 20 min. The resultant vessel fragments were trapped on a 53 μm nylon mesh (Locker Wire Weavers LTD), washed with the isolation medium and centrifuged at 400×g for 5 min. For selective culture of pericytes, the resultant pellet was resuspended in 10 ml of the pericyte growth medium and transferred into 75-cm^2 plastic tissue culture flasks (BD Biosciences). For selective culture of BRCECs, the resultant pellet was resuspended in 10 ml of the BRCEC growth medium and transferred into 75-cm^2 collagen-coated plastic tissue culture flasks (BD Biosciences). The BRCEC growth medium consisted of DMEM supplemented with 10% human serum, 1% glutamine, 1 mg/ml insulin, 550 μg/ml transferring, 670 ng/ml selenium, 100 IU/ml penicillin, 100 μg/ml streptomycin, 250 ng/ml amphotericin, 90 μg/ml heparin (Sigma) and 15 μg/ml endothelial cell growth supplement (Upstate). Cells were cultured at 37° C. and 5% CO2 with regular medium change every 3 days. Confluence cultures were passaged by detaching the cells with 0.25% trypsin and plated at a split 1:3. […] At passage 2, BRCECs and pericytes were stored in a liquid nitrogen tank for future use.
MTT assay: Cells were seeded at a density of 5×10^4 cells per well in 400 μl of growth medium in triplicate in 24-well plates (Nalge Nunc) or gelatin-coated 24-well plates. […] The absorbance of the formazen product was measured at a wavelength of 570 nm, with 750 nm as the (subtracted) reference wavelength.
Primary endothelial cells (HUVEC and BRCEC) and pericytes were treated with various concentrations of the compounds for 3 days. Viable cells were quantified using MTT assay and IC50 of each compound was calculated (mean±SD, n=3, FIG. 1). […]

HUVEC [2] = assay: MTT cell proliferation assay, HUVEC; type: cell-based; settings: Homo sapiens, 72 h, treated 3 days, read-out: IC50, inhibition of proliferation of HUVEC
Excerpt: as §1
MTT assay: Cells were seeded at a density of 5×10^4 cells per well in 400 μl of growth medium in triplicate in 24-well plates (Nalge Nunc) or gelatin-coated 24-well plates. Twenty-four hours after seeding, the growth medium was replaced by a medium containing 1% FBS, with or without different concentrations of thalidomide or phenylphthalimide analogs. After the cells were treated for 48-72 h, MTT was added to a final concentration of 0.5 mg of medium per ml and incubated for 4 h at 37° C. in 5% CO2. An equal volume of solubilizer buffer is then added, following the protocol recommended by the manufacturer (Roche Molecular Biochemicals), the cells will be incubated overnight at 37° C. in 5% CO2. The absorbance of the formazen product was measured at a wavelength of 570 nm, with 750 nm as the (subtracted) reference wavelength.
Primary endothelial cells (HUVEC and BRCEC) and pericytes were treated with various concentrations of the compounds for 3 days. Viable cells were quantified using MTT assay and IC50 of each compound was calculated (mean±SD, n=3, FIG. 1). The IC50 values represent the means and SE of 3 independent experiments.

HUVEC [3] = assay: Endothelial cell migration (invasion) assay; type: cell-based; settings: Homo sapiens, VEGF 4 ng/ml, invasion through Matrigel, read-out: IC50, inhibition of HUVEC migration
Method: Cells were allowed to invade for 22±1 hours. Cells were labeled post invasion with Calcein AM (4 μg/ml) and measured by detecting the fluorescence of cells that invaded through the BD Matrigel™ Matrix with an Applied Biosystems CytoFluor® 4000 plate reader at 485 nm excitation and 530 nm emission.
In this assay system, human endothelial cells are allowed to invade and are then labeled with fluorescent dye Calcein AM before quantification on a fluorometer.
In FIG. 2B, cells were seeded at 5×10^4/insert in EBM-2 containing 0.1% BSA in multi-well inserts. The assembled assays were allowed to proceed for 6 hours. The results are expressed as percent inhibition of migration as compared to control (no inhibitor). Data represents the average of 3 experiments, each run in triplicate. The bars represent mean±SD.

STZ-diabetic rats = assay: Retinal vascular leakage in STZ-diabetic rats, intravitreal injection; type: in vivo, rat; settings: for reduction of retinal vascular leakage vs vehicle control: single intravitreal 1.0 μg/eye (5 μl 0.8 mM), 48 h; for reduction of retinal vascular permeability: two days
Method: Induction of diabetes by streptozotocin (STZ): BN rats (8 weeks of age) were given a single intraperitoneal injection of fresh made streptozotocin (STZ) (Sigma, 50 mg/kg in 10 mM of citrate buffer, pH 4.5) following an overnight fasting. Control rats received an injection of citrate buffer alone. Blood glucose levels were checked at 24 hours following the last STZ injection and once a week thereafter, and only the animals with glucose levels higher than 350 mg/dl were considered diabetic. Rats with hyperglycemia for 2 weeks were used for these experiments.
(§2) Intravitreal injection of compounds: Thalidomide and the phenylphthalimide analogs Compounds 1, 2 and Compound 4 were dissolved in vehicle (BN rat serum) and sterilized by filtration. OIR and STZ-diabetic BN rats received an intravitreal injection of 0.5-2.0 μg/eye of (5 μl/eye, 0.1-0.4 mg/ml in BN rat serum) of thalidomide, Compounds 1, 2 or Compound 4 into the right eye and the equal volume of the BN rat serum into the left eye.
Evans blue dye (Sigma) was dissolved in 0.9% saline (30 mg/ml), sonicated for 5 min and filtered through a 0.45-μm filter (Millipore). The rats were then anesthetized, and Evans blue (30 mg/kg) was injected over 10 s through the femoral vein using a glass capillary under microscopic inspection. Evans blue non-covalently binds to plasma albumin in the blood stream. Immediately after Evans blue infusion, the rats turned visibly blue, confirming their uptake and distribution of the dye. The rats were kept on a warm pad for 2 h to ensure the complete circulation of the dye. Then the chest cavity was opened, and the rats were perfused via the left ventricle with 1% paraformaldehyde in citrate buffer (pH 4.2) which was pre-warmed to 37° C. to prevent vasoconstriction. The perfusion lasted 10 min under the physiological pressure of 120 mmHg, in order to clear the dye from the vessel. Immediately after perfusion, the eyes were enucleated and the retinas were carefully dissected under an operating microscope. Evans blue dye was extracted by incubating each sample in 150 μl of formamide for 18 h at 70° C. The extract was centrifuged (Beckman) at 70,000 rpm (Rotor type: TLA 100.3) for 20 min at 4° C. Absorbance was measured using 100 μl of the supernatant at 620 nm by using Spectrophotometer DU800 (Beckman). The concentration of Evans blue in the extract was calculated from a standard curve of Evans blue in formamide and normalized by the total protein concentration in each sample. Results were expressed in mg of Evans blue per mg of total protein content.
Diabetes was induced by injection of STZ (50 mg/kg, i.v.) into adult BN rats after overnight fasting. Blood glucose levels were monitored at the second day after the injection and once a week thereafter. Rats with glucose levels above 350 mg/dl were considered as diabetic and used for the study. thalidomide, Compounds 1, 2 and 4 were separately injected into the vitreous space (5 μl, 0.8 mM in BN rat serum) of the right eye of STZ-diabetic rats 2 wks after the induction of diabetes. At 48 h after the injection, retinal vascular leakage was measured using the Evans blue-albumin leakage method.
To determine the dose-response relationship of the effect of Compound 4 and thalidomide, the STZ-diabetic rats received an intravitreal injection of Compound 4 and thalidomide with doses of 0.5, 0.75 and 1.0 μg/eye (5 μl/eye of 0.10, 0.15 and 0.20 mg/ml), respectively.

OIR rats = assay: Retinal vascular leakage in OIR rats, intravitreal injection; type: in vivo, rat; settings: for retinal vascular leakage as % of contralateral vehicle-injected eyes: intravitreal 5 μl 0.8 mM at P14, measured P16; for reduction of retinal vascular leakage vs vehicle control: single intravitreal 1.0 μg/eye (5 μl 0.8 mM) at P14, measured P16
Excerpt: Induction of oxygen-induced retinopathy (OIR): Induction of OIR followed the procedure as described by Smith et al (Smith, et al. Invest. Opthalmol. Vis. Sci. 1994, 35: 101-111) with some modifications. Briefly, Newborn Brown Norway (BN) rats (Charles River Laboratories) at postnatal day 7 (P7) were exposed to hyperoxia (75% O2) for 5 days (P7-12) and then returned to normoxia (room air) to induce retinopathy.
as §2
Measurement of vascular permeability: Vascular permeability was quantified by measuring leakage of FITC-albumin or Evans blue dye-albumin complex from the blood vessels into the retina as described (Xu, et al. Invest. Opthalmol. Vis. Sci. 2001, 42:789-794), with some modifications. Briefly, FITC-albumin was injected through the femoral vein and circulated for 2 h. The rats were then perfused via the left ventricle. The retinas were carefully dissected and homogenized. The concentrations of FITC-albumin were measured in a fluorometer and normalized by the total protein concentration in each retina and by plasma concentration of FITC-albumin.
To induce OIR, BN rats at postnatal day 7 (P7) were exposed to hyperoxia (75% O2) for 5 days (P7-P12) and then returned to normoxia. Normal control rats were kept in room air. At P14, the OIR BN rats received an intravitreal injection of 5 μl (0.8 mM in BN rat serum)/eye of thalidomide, Compound 1, Compound 2, or Compound 4 into the right eye and same volume of the BN rat serum into the left eye. Retinal vascular leakage was measured using FITC-labeled albumin as tracer. Normal non-OIR BN rats (n=6) served as baseline at P16.
To determine if the effect of Compound 4 on retinal vascular leakage was dose-dependent, the OIR rats at P14 received a single injection of Compound 4 with doses of 0.5, 0.75 and 1.0 μg/eye (5 μl of 0.10, 0.15 and 0.20 mg/ml).
In FIG. 7A, OIR rats received an intravitreal injection of 5 μl (0.8 mM in BN rat serum)/eye of thalidomide, Compounds 1, 2, or 4 in the right eye and the same volume of the vehicle in the left eye at P14. Vascular leakage was measured using the FITC-labeled albumin leakage method at P16 and expressed as fd/pr of protein in the retina (mean±SD, n=6). Each of the experimental group was compared with contralateral eye by Student's t test. Retinal vascular leakage in normal non-OIR rats at age of P16 were used as baseline at P16. In FIG. 7B, vascular leakage in the compound-injected eyes was expressed as a percentage of average vascular leakage in the vehicle-injected contralateral eyes. For the control, the average vascular leakage in vehicle-treated retinas was used as 100%. […] In FIGS. 7C and 7D, OIR rats received an intravitreal injection of Compound 4 or thalidomide with doses as indicated at P14. Permeability was measured at P16 and expressed as fd/pr of protein in the retina (mean±SD, n=6). Each of the experimental group was compared with the vehicle control by the paired Student's t test. “Normal” is represented as the permeability in normal rats at P16.

Row | Structure (SMILES) | ED50, dose reducing blood vessel number to 50% of VEGF/bFGF alone group [1] [μg/embryo] | IC50 (BRCEC) [µM] | IC50 (HUVEC [2]) [µM] | IC50 (HUVEC [3]) [µM] | reduction of retinal vascular leakage vs vehicle control (STZ-diabetic rats) [%] | retinal vascular leakage as % of contralateral vehicle-injected eyes (OIR rats) [%] | reduction of retinal vascular leakage vs vehicle control (OIR rats) [%] | reduction of retinal vascular permeability (STZ-diabetic rats; dose of 0.5 μg/eye) | reduction of retinal vascular permeability (STZ-diabetic rats; doses of 0.75 and 1.0 μg/eye) | reduction of retinal vascular leakage (OIR rats; dose of 0.5 μg/eye) | reduction of retinal vascular leakage (OIR rats; doses of 0.75 and 1.0 μg/eye)
1 | CC(C)c1cccc(C(C)C)c1N1C(=O)c2ccc(N)cc2C1=O [Compound 4] | 6.5 | 1.83 | 2 | < 1 | ~100 | 61 | 40 |  |  |  | 
2 | O=C1CCC(N2C(=O)c3ccccc3C2=O)C(=O)N1 (stereo not drawn) [thalidomide] | > 100 | > 32 | > 100 | > 100 | 77 | 82 | 18 | not at 0.5 μg/eye | showed an inhibitory effect | not at the dose of 0.5 μg/eye | significantly reduced vascular leakage

Source: patent US20100247659A1, “PHENYLPHTHALIMIDE ANALOGS FOR TREATING DIABETIC MACULAR EDEMA” (Charlesson, LLC, priority 2007, published 2010)
